The results in this text go back to PMC3006207, “Phosphorylation-Dependent Protein Interaction with Trypanosoma brucei 14-3-3 Proteins that Display Atypical Target Recognition” (PLoS ONE, 2010).

Test [1] relates to T. brucei 14-3-3I. In words: Surface plasmon resonance (BIAcore), phosphopeptide vs 14-3-3I. It counts as binding, Trypanosoma brucei. As to conditions: 200 nM GST-14-3-3I; peptide 296 RU on SA5 chip; HBS-EP buffer. The protocol: (§1) The surface plasmon resonance measurement was carried out using BIAcore 2000. A resonance unit value of 220 of biotinylated phosphopeptide pSRaf 259 (biotin-MAGGGRQRSTpSTPN) (mode 1 peptide) was coupled to a streptavidin-coated sensor chip (SA5, BIAcore). In the next step, 200 nM each of purified GST-14-3-3I, GST-14-3-3II, and GST–14-3-3τ, or 500 nM each of MBP-14-3-3I, MBP-14-3-3II, and MBP-14-3-3τ in HBS-EP buffer (BIAcore) was injected at a flow rate of 20 µl/min. A resonance unit value of 296 of biotinylated mode 2 peptide (biotin-MAGGGRLYHpSLP) was also coupled to SA5 and 200 nM each of GST-14-3-3I, GST-14-3-3II and GST-14-3-3τ in HBS-EP buffer, and was injected in the same manner.
For orientation: Surface plasmon resonance follows binding to a sensor surface in real time, without labels.

Test [2] concerns the target T1, human 14-3-3τ (Homo sapiens, UniProt P27348).
T1 construct: made in house
T1 sequence (P27348 1-245): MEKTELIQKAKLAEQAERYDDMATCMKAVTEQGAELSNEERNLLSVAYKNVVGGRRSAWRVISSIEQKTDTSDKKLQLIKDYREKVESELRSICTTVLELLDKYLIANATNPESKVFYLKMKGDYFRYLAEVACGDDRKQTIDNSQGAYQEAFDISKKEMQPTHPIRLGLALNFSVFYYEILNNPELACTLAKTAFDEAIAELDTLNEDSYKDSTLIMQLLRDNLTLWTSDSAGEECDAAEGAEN
Nature of the test: Surface plasmon resonance (BIAcore), phosphopeptide vs 14-3-3τ. Format: binding. The conditions noted are these: 200 nM GST-14-3-3τ; peptide 296 RU on SA5 chip; HBS-EP buffer. As to the method: as §1

The subject of test [3] is T. brucei 14-3-3II. Nature of the test: Surface plasmon resonance (BIAcore), phosphopeptide vs 14-3-3II. Format: binding, Trypanosoma brucei. The conditions noted are these: 200 nM GST-14-3-3II; peptide 296 RU on SA5 chip; HBS-EP buffer. As to the method: as §1
For test [4], the system named is GST-I K77E +II K56E. In words: NC-filter binding assay, mutant heterodimer. Details: species or system Trypanosoma brucei. As to the method:
I K77E: 5′-[…]-3′, 5′-[…]-3′; and II K56E: 5′-[…]-3′, 5′-[…]-3′. The sequences were confirmed.
(§2) Five µl of 1 mM biotinylated peptides, purchased from Scrum (Japan) were mixed with 15 µl of streptavidine (1 mg/ml) in the presence of 0.1% Tween20, spotted on NC-filters and dried. Filters were washed with TTBS, blocked with Protein-Free Blocking Buffer (Pierce), and then incubated with GST-14-3-3 proteins in TTBS containing 20% Protein-Free Blocking Buffer and 1 mM DTT. The filters were extensively washed four times with TTBS, and detected with anti-GST antibodies.

In test [5] the test system is heterodimeric T. brucei 14-3-3I+II. Nature of the test: NC-filter binding assay, heterodimeric T. brucei 14-3-3. Details: species or system Trypanosoma brucei. The conditions noted are these: biotinylated peptide + streptavidine on nitrocellulose filter; GST-14-3-3 detected with α-GST antibodies. As to the method:
as §2

Test [6] relates to human 14-3-3ζ. In words: NC-filter binding assay, human 14-3-3ζ. As to the method:
as §2

In test [7] the test system is endogenous 14-3-3I and II. Nature of the test: Co-immunoprecipitation with α-V5 Ab in T. brucei PCF cells. Format: cell-based, Trypanosoma brucei. As to conditions: Tet-inducible T. brucei PCF clones; Western blot with mixture of α-I and α-II Ab. The source says:
Figure 2 Interaction of T. brucei PP2c with T. brucei and human 14-3-3 proteins. (A) and (B) Mammalian expression vectors pCR3 N-V5-PP2c, –PP2c S744A or -C-terminal mutants of PP2c were transiently transfected to HEK293T cells. The cell lysates were subjected to immunoprecipitation with α-V5 Ab followed by far-Western blot analyses (Far-WB) using indicated probes (upper panel). Immunoprecipitated proteins were reprobed with α-V5 Ab (lower panel). (C) Modes 1-3 phosphopeptides summarized in Table 1 have far less affinity to T. brucei 14-3-3 than human 14-3-3ζ proteins. Indicated biotinylated phosphopeptides were mixed with streptavidine and spotted to nitrocellulose filters and dried. The filters were then incubated with indicated GST-14-3-3 proteins and detected with α-GST antibodies. (D) Tet-inducible T. brucei expression vector, pLew82 T7bsr-N-V5-PP2c was transfected and clones were isolated with blasticidin selection. Tet-uninduced (Tet−) or –induced (Tet +) cell lysates of the clone were subjected to immunoprecipitation followed by Western blotting using a mixture of α-I and II Ab (lower panel), and horseradish peroxidase (HRP)-labeled α-V5 Ab (upper panel).
(§3) Figure 3 p31-SAP binds to T. brucei 14-3-3 proteins in vivo (PCF cells). […] Immunoprecipitated proteins were analyzed by Far-WB with GST-II + I as a probe (upper panel). […]
In general terms: In western blotting, separated proteins are transferred to a membrane and probed.

Test [8] relates to T. brucei GST-II +I. In words: Far-Western blot of immunoprecipitated V5-tagged proteins, probe GST-II +I. It counts as binding, Trypanosoma brucei. The conditions noted are these: protein expressed in HEK293T cells, immunoprecipitated with anti-V5.
Excerpt: (§4) We first examined whether a putative protein phosphatase 2c (PP2c) in the list interacts with T. brucei 14-3-3 proteins, since the phenotype of knockdown of 14-3-3I and/or II resembled that of okadaic acid, a potent serine/threonine phosphatase inhibitor, -treated T. brucei cells and PP2c has a putative mode 3 motif. The N-terminally V5-tagged PP2c protein was expressed in human HEK293T cells and purified by immunoprecipitation using anti-V5 monoclonal antibody (Ab). Far-WB probing with GST-14-3-3 proteins was used to detect the direct interaction. We have recently identified the heterodimeric form as the major form of T. brucei 14-3-3 proteins (unpublished data) and thus, recombinant heterodimeric GST-II +I was used as a probe. […] We further confirmed that the binding was mediated by intact mode 3 motif (Figure 2B).
Figure 2 Interaction of T. brucei PP2c with T. brucei and human 14-3-3 proteins. (A) and (B) Mammalian expression vectors pCR3 N-V5-PP2c, –PP2c S744A or -C-terminal mutants of PP2c were transiently transfected to HEK293T cells. […] The filters were then incubated with indicated GST-14-3-3 proteins and detected with α-GST antibodies. […]
as §3

In test [9] the test system is human GST-14-3-3ζ. Nature of the test: Far-Western blot of immunoprecipitated V5-tagged proteins, probe GST-14-3-3ζ. Format: binding. The conditions noted are these: protein expressed in HEK293T cells, immunoprecipitated with anti-V5.
Excerpt: as §4
Figure 2 Interaction of T. brucei PP2c with T. brucei and human 14-3-3 proteins. (A) and (B) Mammalian expression vectors pCR3 N-V5-PP2c, –PP2c S744A or -C-terminal mutants of PP2c were transiently transfected to HEK293T cells. The cell lysates were subjected to immunoprecipitation with α-V5 Ab followed by far-Western blot analyses (Far-WB) using indicated probes (upper panel). Immunoprecipitated proteins were reprobed with α-V5 Ab (lower panel). […] The filters were then incubated with indicated GST-14-3-3 proteins and detected with α-GST antibodies. […]

Consider “biotin-MAGGGRLYHpSLP [mode 2 phosphopeptide, biotinylated mode 2 peptide (biotin-…pSLP)]”, for which the “binding pattern of the sensorgram, mode 2” value in test [1] is “neither GST-14-3-3I nor GST–14-3-3II showed any binding”; in test [2] it was “bound to the mode 2 phosphopeptide”; in test [3], “neither GST-14-3-3I nor GST–14-3-3II showed any binding”.

“MGGGHVSGLKRRRpSV [synthetic mode 3 phosphopeptide derived from p31-SAP]”: in test [4], the “binding of mutant 14-3-3 to p31-SAP derived peptide” value was “prevent the binding to the p31-SAP derived peptide”. Besides, the “interaction with spotted phosphopeptide” value is listed as “clearly detected” in test [5] and “interacts with both phosphopeptides but with the preferential binding to the mode 3 peptide derived from p31-SAP” in test [6] (biotinylated peptide + streptavidine on nitrocellulose filter, GST-14-3-3ζ detected with α-GST antibodies). Besides, in test [6] (NC-filter, relative to T. brucei 14-3-3), the “affinity to p31-SAP derived phosphopeptide, human 14-3-3ζ vs T. brucei 14-3-3” value is reported as “slightly higher affinity to the p31-SAP derived phosphopeptide than T. brucei 14-3-3”.

B1: V5-tagged PP2c: N-terminally V5-tagged putative T. brucei protein phosphatase 2c (Tb927.7.4020) (protein)
chain: MYTSVRKPPLSTAKLSEKTDAAGKGNLNGVAESPTSRDGGIGSSMPYVARKPNSGDGQGRPGEVQRAGQVTYQTTNALFTGSTVPGKTKDVSTAKSSGGGDHLNNGDRPPLVGDNNEVSSPRTIKMNSSPPRRYFHRGAINCNSSENVAAVLGGSTLISGERVGSGSGYPRRVFSGPPSTRMLNQGGEEPAQKPQPPGSSRSKSGIRQLQFALNGNSSQRLLPVPPRQLCPSNPARRGGGAATVTPRCSDARRQKQDSTDPFDMTQVLNGVGTQLGLPSYCPGAESSQGSNRLRGSKPPSPSLLPLASLRSQQMPSTAGVPAPRSLSESQQLSINPSGVFGCATDCKNGLGYDFRVVASTGKSFNLPIKLTAGVGCVQGLRPTMEDEHFIRLQATTAVGQPVSLLGILDGHCGRRVAELAAKHVPDNFIAHPALGENNALAFVESIIQADRAIFHSIGKGSGGVGLSAGFGGSGGSTLIAAAVHGRMLYVACLGDARAVLYDGNTTIPMSEDHKPLNKKEHTRILQCGGFVQLGRVCGVLAVSRALGDYEFKFNGNRFISNRELMVSNVADVRQINLTDSSKFLLLACDGLWDAVQNEEATQFVRDFLSYTPDVGSSPEATKRAINNCCQKLAEFAVSRGSTDNVSVMLLFFHNVADVVASFDRASDATTSRATVTSPVSPRLFSASRGVNAGFTGMESRLAGISGGSSSGAFGGSSGAEGSSVRGAGRTKVDRGASWLTRSRSLW
modifications: left off: V5, N-terminal, kept
In the case of B1, the “co-immunoprecipitation with 14-3-3I and II” value in test [7] is listed as “failed to show the interaction of 14-3-3 with PP2c”. Further, the “direct binding by Far-WB” value in test [8] was “to T. brucei GST-II +I (heterodimerized recombinant proteins) with lower affinity”; in test [9] it was “directly bound to GST-14-3-3ζ with high affinity”.
